Test results as given in patent publication US20090074680A1, “STATHERIN PEPTIDE AND USE IN MEDICINE” (QUEEN MARY & WESTFIELD COLLEGE, priority 2005, published 2009).
Where no end group is shown, it is not given here. [ ]: non-standard residue; d: D form. pS = N[C@@H](COP(=O)(O)O)C(=O)O

Tests used:
[1] = Scanning microradiography (SMR) of demineralisation of HAp blocks coated for 24 h with peptide; details: for RDHAp of coated HAp compared to uncoated control: 24 h coating, StN21 0.75 to 3.76×10^−4 mol l^−1, lysozyme 0.11×10^−4 mol l^−1, pH 4.5; for rate of demineralisation of HAp (RDHAp): 0.1 mol l^−1 acetic acid pH 4.5, 3 weeks
Source text: HAp pellets are used in many studies instead of enamel blocks to prevent effect of enamel organic impurities and its natural surface on rate of demineralisation (Anderson et al., 2004). Statherin could not be isolated in a sufficiently pure form from saliva. Therefore N-terminal 21 residue fragment of statherin (StN21) was chemically synthesised using standard FastMoc synthesis (Fields et al., 1990). Also SXE motif, responsible for calcium binding in caseins, is present in this 21 amino-acid fragment of statherin. To exclude the possibility that StN21 act solely as a semi-permeable membrane, lysozyme was used as a negative control.
Hydroxyapatite (HAp) pellets of 20 wt % porosity (Plasma Biotal Ltd, UK) were sliced into 3×3 mm blocks with 2 mm thickness using Microslice 2 cutter (Malvern Instruments Ltd.). Entire surface of the block, except one side was coated with acid resistant nail varnish. Ten HAp blocks were put into a solution saturated with respect to HAp for 24 hours to equilibrate. After equilibration, four HAp blocks were exposed for 24 h to 0.5 ml of four different concentrations of StN21 peptide dissolved in modified buffer (100 mmol^−1 NaCl, 40 mmol^−1 KCl, 4.3 mmol^−1 Na2HPO4, and 1.4 mmol^−1 KH2PO4, pH 7.4). The concentrations of StN21 peptide were 0.75, 1.13, 1.88 and 3.76×10^−4 mol l^−1. As a negative control one HAp pellet was put into 0.5 ml of solution containing lysozyme at concentration of 0.11×10^−4 mol l^−1.
Scanning microradiography (SMR) is a technique for observing very subtle changes in mineral mass during re and demineralisation of enamel and HAp. It allows observation period of up to 1000 h without disruptions to the specimen. Also, conditions can be modified and the effect of applied modifications on the samples can be monitored. SMR (Anderson et al., 2004) is an X-ray photon counting technique where the intensity of 15 μm X ray beam is attenuated by passing through the specimen and the transmitted photons are counted by an X-ray detector.
HAp blocks were placed in the wells of SMR cells (FIG. 2). Each SMR cell contained one HAp block coated with protein and one as a control. As an additional control, in one SMR cell two uncoated HAp blocks were placed in one SMR cell. The reservoir of the SMR cell is approximately 1.2 ml and solution is circulating past the HAp blocks at 0.4 ml min^−1.
Demineralising solution was 0.1 mol l^−1 acetic acid, buffered to pH 4.5 with 1 mol l^−1 NaOH; 1 mmol l^−1 calcium and 0.6 mmol l^−1 phosphate ions.
SMR was used to monitor changes in mineral mass at 12 positions 10 μm apart, along 2 lines in each well. Scanning time was 30 s per position. Total period of observation was 3 weeks. The rate of mineral change at each position was calculated by linear least squares fitting.

[2] = SMR of demineralisation of HAp blocks after 3 min immersion(s) in STN21 solution; details: STN21 1.88×10^−4 mol l^−1, pH 4.5
Experimental: STN21 was synthesised using Fmoc solid state synthesis. Hydroxyapatite (HAp) pellets were cut into 5×5×2 mm blocks and covered with acid-resistant varnish leaving one surface exposed and immersed in STN21 solution (1.88×10^−4 mol l^−1) for 3 min. The pellets were then located in scanning microradiography (SMR) cells. Demineralising solution (0.1 mol l^−1 acetic acid, pH 4.5) was circulated (0.4 ml min^−1) for 3 weeks.
Five samples were exposed to further twice daily 3 min. immersions in STN21 solution. Changes in mineral mass were measured using SMR for 28 days.

[3] = lysozyme bound to HAp surface; cited from earlier work

Substance	effect on RDHAp at lowest concentration ([1]; 9.4×10^−6 molar, equivalent to 25 mg/litre)	RDHAp of coated HAp compared to uncoated control [1]	rate of demineralisation of HAp (RDHAp) ([1]; StN21 coating concentration 0.75×10^−4 mol l^−1, 24 h exposure)	rate of demineralisation of HAp (RDHAp) ([1]; StN21 coating concentration 1.13×10^−4 mol l^−1, 24 h exposure)	rate of demineralisation of HAp (RDHAp) ([1]; StN21 coating concentration 1.88×10^−4 mol l^−1, 24 h exposure)	rate of demineralisation of HAp (RDHAp) ([1]; StN21 coating concentration 3.76×10^−4 mol l^−1, 24 h exposure)	decrease in rate of mineral loss compared to a non-coated control ([2]; one 3 min period only)	decrease in demineralisation rate ([2]; repeated twice daily 3 min immersions)	influence on rate of demineralisation of HAp [3]
DpSpSEEKFLRRIGRFGYGYGPY (D[pS][pS]EEKFLRRIGRFGYGYGPY; UniProt P02808 20-40, looked up, fragment) [StN21, N-terminal fragment of statherin which consists of 21 amino acids; pS = phosphorylated serine]	effective	significantly lower	2.2 ×10^−5 g cm^−2 h^−1	1.9 ×10^−5 g cm^−2 h^−1	1.7 ×10^−5 g cm^−2 h^−1	1.8 ×10^−5 g cm^−2 h^−1	17%	45%	–
lysozyme [reference compound]	–	very similar results to uncoated (control) blocks	–	–	–	–	–	–	does not influence rate of demineralisation of HAp
